Source: patent US20070243321A1, “Aqueous Bitumen Emulsion” (Eiffage Travaux Publics, priority 2004, published 2007)

Assay: Measurement of surface tension and critical micellar concentrations (rising drop tensiometer)
Assay type: physicochemical
Settings: for CMC: critical micellar concentration; for γcmc: surface tension at the CMC, rising drop
Experimental: Measurement of Surface Tension and Critical Micellar Concentrations The tensiometric measurements were carried out with a drop tensiometer operating by the method of the rising drop ([…] tensiometer, I.T. CONCEPT).

CMC	γcmc	Molecule
8000 µM	30.0 mN/m	CCCCCCCCCCCCOS(=O)(=O)[O-].[Na+] [SDS (C12), reference compound]
140 µM	36.0 mN/m	betainylaminooctadecane mesylate [Amides C18:0]
800 µM	37.2 mN/m	octadecyl betaine mesylate [Esters C18:0]
